Source: patent US20050096360A1, “Inhibitors of semicarbazide-sensitive amine oxidase (SSAO) and VAP-1 mediated adhesion useful for treatment of diseases” (priority 2003, published 2005)
Where a name gives a salt, the structure may show the parent alone. Read-outs that look alike come from different tables or passages of the source.

Experiments:
[1] = biological target: T1, SSAO (bovine plasma amine oxidase, PAO) (Bos taurus, UniProt Q29437); assay: In vitro inhibition of SSAO activity, coupled colorimetric method; assay type: biochemical
T1 construct: Bovine plasma amine oxidase (PAO) was purchased from Worthington Biochemical; purchased Worthington Biochemical (Lakewood, N.J.)
T1 sequence (Q29437 17-762): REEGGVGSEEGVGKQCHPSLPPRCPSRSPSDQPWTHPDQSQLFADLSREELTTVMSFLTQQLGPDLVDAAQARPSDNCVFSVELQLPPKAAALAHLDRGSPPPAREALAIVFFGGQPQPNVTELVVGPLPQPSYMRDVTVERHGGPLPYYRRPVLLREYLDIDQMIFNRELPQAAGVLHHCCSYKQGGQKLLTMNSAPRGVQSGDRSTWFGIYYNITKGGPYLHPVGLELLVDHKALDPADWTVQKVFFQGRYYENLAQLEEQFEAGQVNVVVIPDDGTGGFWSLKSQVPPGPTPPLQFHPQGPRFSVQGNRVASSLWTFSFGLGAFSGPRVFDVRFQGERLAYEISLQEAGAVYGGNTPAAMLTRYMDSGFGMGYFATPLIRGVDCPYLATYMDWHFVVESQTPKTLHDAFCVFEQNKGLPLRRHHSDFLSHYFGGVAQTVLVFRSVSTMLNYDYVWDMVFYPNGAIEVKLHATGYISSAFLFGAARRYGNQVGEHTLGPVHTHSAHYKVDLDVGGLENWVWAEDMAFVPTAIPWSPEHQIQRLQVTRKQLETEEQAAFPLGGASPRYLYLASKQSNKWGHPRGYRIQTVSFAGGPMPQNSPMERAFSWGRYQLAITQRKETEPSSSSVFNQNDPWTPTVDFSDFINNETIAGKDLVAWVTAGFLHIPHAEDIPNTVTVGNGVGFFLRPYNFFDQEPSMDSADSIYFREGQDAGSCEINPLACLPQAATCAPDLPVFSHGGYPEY
Procedure: SSAO activity was measured using the coupled colorimetric method essentially as described for monoamine oxidase and related enzymes (Holt A. et al. (1997) Anal. Biochem. 244:384). Bovine plasma amine oxidase (PAO) was purchased from Worthington Biochemical (Lakewood, N.J.) and used as a source of SSAO for activity measurements. The SSAO assay was performed in 96 well microtitre plates as follows. A pre-determined amount of inhibitor diluted in 0.2 M potassium phosphate buffer, pH 7.6, was added to each well, if required. The amount of inhibitor varied in each assay but was generally at a final concentration of between 10 nM and 10 μM. Controls lacked inhibitor. In order to study the effects of potential inhibitors 50 μl of inhibitor solution were preincubated for 30 min at 37° C. with 0.4 mU of PAO in an a total volume of 130 μl of 0.2 M potassium phosphate buffer pH 7.6. Assays were then started by addition of 20 μl 10 mM benzylamine substrate and incubated for 20 min at 37° C. The following reagents were then added to a final reaction volume of 200 μl, 50 μl of freshly made chromogenic solution containing […] vanillic acid (Sigma # V-2250), […] 4-aminoantipyrine (Sigma # A-4328) and 12 U/ml horseradish peroxidase (Sigma # P-8250) in order to cause a change of 0.5 OD A490 per hour. This was within the linear response range of the assay. The plates were incubated for 1 hr at 37° C. and the increase in absorbance, reflecting SSAO activity, was measured at 490 nm using a microplate spectrophotometer (Power Wave 40, Bio-Tek Inst.). Inhibition was presented as percent inhibition compared to control after correcting for background absorbance and IC50 values calculated using GraphPad Prism software.

recombinant human MAO-A = biological target: T2, recombinant human MAO-A (Homo sapiens, UniProt P21397); assay: Inhibition of MAO-A activity, colorimetric; assay type: biochemical; conditions: for Specificity for SSAO vs. MAO-A: ratio IC50 MAO-A to IC50 SSAO
T2 construct: purchased BD Biosciences (MA, USA)
T2 sequence (P21397 1-527): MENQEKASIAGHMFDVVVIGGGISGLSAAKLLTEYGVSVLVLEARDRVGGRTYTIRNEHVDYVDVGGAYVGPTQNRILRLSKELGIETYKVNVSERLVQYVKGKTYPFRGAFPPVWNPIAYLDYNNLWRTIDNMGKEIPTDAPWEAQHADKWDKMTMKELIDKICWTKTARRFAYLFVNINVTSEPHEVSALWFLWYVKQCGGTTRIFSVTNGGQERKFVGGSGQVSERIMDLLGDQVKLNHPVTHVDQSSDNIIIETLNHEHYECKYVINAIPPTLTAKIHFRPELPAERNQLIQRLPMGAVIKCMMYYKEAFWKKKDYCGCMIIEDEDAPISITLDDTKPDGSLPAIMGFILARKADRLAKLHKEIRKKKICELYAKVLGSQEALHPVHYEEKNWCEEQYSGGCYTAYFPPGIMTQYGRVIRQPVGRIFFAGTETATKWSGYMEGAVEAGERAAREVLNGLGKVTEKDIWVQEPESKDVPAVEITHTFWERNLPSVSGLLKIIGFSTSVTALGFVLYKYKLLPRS
Procedure: (§1) The specificity of the different SSAO inhibitors was tested by determining their ability to inhibit MAO-A and MAO-B activities in vitro. Recombinant human MAO-A and human MAO-B enzymes were obtained from BD Biosciences (MA, USA). […] A pre-determined amount of inhibitor diluted in 0.2 M potassium phosphate buffer, pH 7.6, was added to each well, if required. […] Controls lacked inhibitor. The following agents were then added to a final reaction volume of 200 μl in 0.2 M potassium phosphate buffer, pH 7.6: 0.04 mg/ml of MAO-A or 0.07 mg/ml MAO-B enzyme, 15 μl of 10 mM tyramine substrate (for MAO-A), or 15 μl 100 mM benzylamine substrate (for MAO-B), and 50 μl of freshly made chromogenic solution (as above). The plates were incubated for 60 min at 37° C. The increase in absorbance, reflecting MAO activity, was measured at 490 nm using microplate spectrophotometer (Power Wave 40, Bio-Tek Inst.). Inhibition was presented as percent inhibition compared to control after correcting for background absorbance and IC50 values calculated using GraphPad Prism software.

recombinant human MAO-B = biological target: T3, recombinant human MAO-B (Homo sapiens, UniProt P27338); assay: Inhibition of MAO-B activity, colorimetric; assay type: biochemical; conditions: for Specificity for SSAO vs. MAO-B: ratio IC50 MAO-B to IC50 SSAO
T3 construct: purchased BD Biosciences (MA, USA)
T3 sequence (P27338 1-520): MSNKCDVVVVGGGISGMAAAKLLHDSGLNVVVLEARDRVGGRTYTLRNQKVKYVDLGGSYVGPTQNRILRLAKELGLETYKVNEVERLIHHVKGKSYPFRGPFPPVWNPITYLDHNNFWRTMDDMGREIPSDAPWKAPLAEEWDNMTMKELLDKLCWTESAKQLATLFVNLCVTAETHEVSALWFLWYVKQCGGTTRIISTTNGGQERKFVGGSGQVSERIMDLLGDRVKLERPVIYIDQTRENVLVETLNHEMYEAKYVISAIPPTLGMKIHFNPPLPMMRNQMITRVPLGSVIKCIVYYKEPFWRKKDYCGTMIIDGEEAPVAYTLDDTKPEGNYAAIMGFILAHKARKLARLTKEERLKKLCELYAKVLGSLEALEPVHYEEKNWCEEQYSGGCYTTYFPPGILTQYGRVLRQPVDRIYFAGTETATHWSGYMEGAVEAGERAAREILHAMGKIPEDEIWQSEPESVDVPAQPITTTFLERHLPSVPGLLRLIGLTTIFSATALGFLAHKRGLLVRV
Procedure: as §1

[2] = tested on: carrageenan-induced paw edema in Sprague Dawley rats; assay: Carrageenan-induced rat paw edema; assay type: in vivo; conditions: 3 mg/kg oral 1 hour prior to carrageenan
Procedure: Female Sprague Dawley rats were used and compounds of the invention were injected i.p. at 100 mg/kg 15 minutes prior to carrageenan exposure. The control group was injected with an equal volume of vehicle (PBS). Edema in the paws was induced as previously described by injecting 50 μl of a 0.5% solution of carrageenan (Type IV Lambda, Sigma) in saline with a 27-G needle s.c. in the right foot pat. (See Whiteley P. E. and Dalrymple S. A. (1998) Models of inflammation: carrageenan-induced paw edema in the rat, in Current Protocols in Pharmacology. Enna S J, Williams M, Ferkany J W, Kenaki T, Porsolt R E and Sullivan J P, eds., pp 5.4.1-5.4.3, John Wiley & Sons, New York) The size of the tested foot of each animal was measured volumetrically, before induction of edema, and at 60, 120, and 180 min after carrageenan induction.
Briefly, SSAO inhibitors (30 mg/kg), indomethacin (3 mg/kg) and PBS were administered orally to rats 1 hour after carrageenan injections.
To investigate further the role of SSAO inhibition in the inflammatory response, studies were carried out to assess the effect of SSAO inhibition on prostaglandin E2 (PGE2) levels. Animals were divided into four therapeutic groups of eight rats each. […] The fourth group received 3 mg/kg of dexamethasone, i.p. 1 hour before paw inflammation. Three hours after carrageenan injection, rats were asphyxiated with CO2 and their hind paws removed. The paws were lacerated with a scalpel, suspended off the bottom of a polypropylene 1.5 ml tube with a micropipette tip and centrifuged to express the inflammatory fluid. The volume collected from each paw was determined and the fluid was analyzed by ELISA for PGE2 production using a commercial kit (R&D Systems, Minneapolis, Minn.) according to the manufacturer's instructions. […] Data were analyzed with GraphPad Prism software (San Diego, Calif.) by Dunnett's test following analysis of variance.

SMILES | melting point [°C] | IC50 [1] [µM] | IC50 (recombinant human MAO-A) [µM] | Specificity for SSAO vs. MAO-A (recombinant human MAO-A) | IC50 (recombinant human MAO-B) [µM] | Specificity for SSAO vs. MAO-B (recombinant human MAO-B) | IC50 ([1]; 30 min preincubation, benzylamine substrate, read-out: SSAO Inhibitory Activity IC50) [µM] | IC50 (recombinant human MAO-A; tyramine substrate, no pre-incubation, read-out: MAO-A Inhibitory Activity IC50) [µM] | PGE2 levels in paw exudate [2]
C=C(CON)c1ccccc1 (as salt: hydrochloride) [Example 1, O-(2-phenyl-allyl)-hydroxylamine Hydrochloride] | 101 to 102 | – | – | – | – | – | – | – | –
C=C(CON)c1ccccc1 [Example 1, O-(2-phenyl-allyl)-hydroxylamine Hydrochloride] | – | 0.029 | 900 | 31,000 | 125 | 4,300 | – | – | –
C=C(CNN)c1ccc(Cl)cc1.Cl [Example 3, N-[2-(4′-chlorophenyl)-allyl]-hydrazine Hydrochloride] | – | – | – | 20 | 24.5 | 490 | 0.05 | 1 | –
C=C(CN(C)N)c1ccc(Cl)cc1.Cl [Example 4, N-[2-(4′-chlor-phenyl)-allyl]-N-methyl-hydrazine Hydrochloride] | – | 0.65 | 260 | 400 | 175 | 269 | – | – | –
C=C(CN(N)CC)c1ccc(Cl)cc1.Cl [Example 5, N-[2-(4′-Chlorophenyl)-allyl]-N-ethyl-hydrazine Hydrochloride] | 150 to 151 | 0.95 | 690 | 726 | 155 | 163 | – | – | –
C=C(CN(C)NC)c1ccc(Cl)cc1.Cl [Example 6, N-[2-(4′-Chlorophenyl)-allyl]-N,N′-dimethylhydrazine Hydrochloride] | 108 to 110 | 4.7 | 300 | 64 | 2.8 | 0.60 | – | – | –
C=C(CNNC)c1ccc(F)cc1.Cl [Example 7, N-[2-(4′-fluorophenyl)-allyl]-N′-methylhydrazine Hydrochloride] | 128 to 129 | 2.61 | 620 | 230 | 210 | 80 | – | – | –
C=C(C)CNN.Cl [Example 9, (2-methyl-allyl)hydrazine Hydrochloride] | – | 0.055 | 350 | 6,300 | 20 | 360 | – | – | –
NOCC(O)c1ccccc1 (centres unmarked) [Example 11, 2-Aminooxyl-1-phenyl-ethanol Hydrochloride] | – | 0.05 | 250 | 5000 | 450 | 9000 | – | – | –
COc1ccc(C(O)CON)cc1OC (centres unmarked) [Example 12, 2-Aminooxy-1-(3′,4′-dimethoxyphenyl)-ethanol Hydrochloride] | – | 0.09 | 3.6 | 400,000 | 8200 | 90,000 | – | – | –
COc1ccc2c(c1)c(CC(=O)O)c(C)n2C(=O)c1ccc(Cl)cc1 [indomethacin, reference compound] | – | – | – | – | – | – | – | – | greater impact
